Test results taken from patent US20140296176A1, “COMBINATION CANCER THERAPY WITH AN HSP90 INHIBITOR AND AN ANTIMETABOLITE” (Synta Pharmaceuticals Corp., priority 2011, published 2014).

Experiments:
[1] = test system: HCT-116 colorectal cancer cells; assay: alamarBlue cell viability assay, HCT-116 cells; type: cell-based; conditions: Homo sapiens, 72 hr drug exposure
Experimental: (§1) Human HCT-116 colorectal cancer cells (CRC) were purchased from the American Type Culture Collection (Manassas, Va.) and grown in McCoy's 5a media (Sigma), following ATCC recommendations, in the presence of fetal bovine serum (10%), 2 mM L-glutamine and antibiotics (100 IU/ml penicillin and 100 μg/ml streptomycin, Sigma). Cells were maintained at 37° C., 5% CO2 atmosphere.
Cell viability was measured using the alamarBlue assay (Invitrogen). In brief, cells were plated in 96-well plates in triplicate at 5K cells per well and incubated at 37° C., 5% CO2 atmosphere for 24 hr prior to the addition of drug or vehicle (0.3% DMSO) to the culture medium. […] Fluorescence (560EX/590EM nM) was measured with a SpectraMax microplate reader (Molecular Devices) and the resulting data were used to calculate cell viability, normalized to vehicle control.
After HCT-116 cells were exposed to drug for 72 hr, cell viability was measured and results were fit to a four parameter logistic model (XLFit, ID Business Solutions).
(§2) Combinations between ganetespib and fluorouracil were then performed in HCT-116 cells concurrently based on the IC50 for each agent in matrix format with 54 combination pairs for each drug. The combined drugs, as well as each drug alone, were incubated with the cells for 3 days and the surviving fraction of cells relative to control was determined using the alamarBlue assay.

[2] = test system: MOLT-4 cells; assay: alamarBlue cell viability assay, MOLT-4 cells; type: cell-based; conditions: Homo sapiens, 72 hr drug exposure, four parameter logistic fit
Experimental: as §1, with “MOLT-3, MOLT-4 and Jurkat T cell leukemia” for “HCT-116 colorectal cancer”, “cells” for “cells (CRC)”, “RPMI” for “McCoy's 5a media”
Cell viability was measured using the alamarBlue assay (Invitrogen). In brief, cells were plated in 96-well plates in triplicate at 20K, 15K or 15K cells per well for MOLT-3, MOLT-4 or Jurkat cells respectively, and incubated at 37° C., 5% CO2 atmosphere for 24 hr prior to the addition of drug or vehicle (0.3% DMSO) to the culture medium. After 72 hr, 10 μl/well Alamar Blue was added to the wells and incubated for an additional 3 hr at 37° C., 5% CO2 atmosphere. Fluorescence (560EX/590EM nM) was measured with a SpectraMax microplate reader (Molecular Devices) and the resulting data were used to calculate cell viability, normalized to vehicle control.
After MOLT-4 cells were exposed to drug for 72 hr, cell viability was measured and results were fit to a four parameter logistic model (XLFit, ID Business Solutions) shown in FIG. 1.
as §2, with “the nucleoside analog Ara-G” for “fluorouracil”, “MOLT-4” for “HCT-116”, “agent.” for “agent in matrix format with 54 combination pairs for each drug.”

[3] = test system: KRAS substrates, including BRAF and CRAF; assay: destabilization of KRAS substrates in KRAS mutant NSCLC cells; type: cell-based, human; conditions: leading to inactivation of downstream effectors and programmed cell death
[4] = test system: human KRAS mutant NSCLC tumor xenografts; assay: KRAS mutant NSCLC tumor xenografts in vivo; set-up: species or system mouse
[5] = test system: NSCLC having a KRAS mutation; assay: Phase 2 trial with ganetespib; type: in vivo, human; conditions: at 8 weeks
[6] = test system: KRAS mutant NSCLC cell lines; assay: cell viability in panel of KRAS mutant NSCLC cell lines; type: cell-based; conditions: Homo sapiens; across 15 KRAS mutant NSCLC cell lines in vitro
Experimental: For combinatorial analysis, cells were seeded in 96-well plates at a predetermined, optimum growth density for 24 h prior to the addition of drug or vehicle to the culture medium. Drug combinations were applied at a non-constant ratio over a range of concentrations for 72 or 96 hours. […] Cell viability was assessed by either AlamarBlue® (Invitrogen, Carlsbad, Calif.) or CellTiter-Glo® assays and normalized to vehicle controls. For each combination study, the level of growth inhibition (fraction affected) is plotted relative to vehicle control. Data are presented as one relevant combination point and the corresponding single agent data for each cell line tested.

Structure (SMILES) | IC50 [1] [nM] | IC50 [2] [nM] | destabilization of KRAS substrates [3] | growth of tumor xenografts [4] | patients exhibiting tumor shrinkage [5] [%] | IC50 [6] [nM]
O=c1[nH]cc(F)c(=O)[nH]1 [5-FU, 5-fluorouracil, reference compound] | ~4500 | – | – | – | – | –
Nc1ccn([C@@H]2O[C@H](CO)[C@@H](O)[C@@H]2O)c(=O)n1 [Ara-C, cytarabine] | – | ~25 | – | – | – | –
COc1nc(N)nc2c1ncn2[C@@H]1O[C@H](CO)[C@@H](O)[C@@H]1O [Ara-G, nelarabine] | – | ~2000 | – | – | – | –
CC(C)c1cc(-c2nnc(O)n2-c2ccc3c(ccn3C)c2)c(O)cc1O [ganetespib, 3-(2,4-dihydroxy-5-isopropyl-phenyl)-4-(1-methyl-indol-5-yl)-5-hydroxy-[1,2,4]triazole] | ~32 | ~20 | induced the destabilization | effectively suppressed the growth | > 60 | 24
